In article PMC10064984, “Anti-cyclooxygenase, anti-glycation, and anti-skin aging effect of Dendrobium officinale flowers’ aqueous extract and its phytochemical validation in aging” (Frontiers in Immunology, 2023):
Where “and” joins values, the source holds several entries; their conditions need not be identical. Equal values may be shown once. Read-outs that look alike come from different tables or passages of the source.

What was measured:
[1] = ABTS·+ decolourisation capacity; type: biochemical; conditions: for ABTS scavenging rate: 0.5mM series, replicate wells, listed as T15; for IC50: mean ± SD, n = 3
How it was run: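 ABTS·+ working solution in 0.2 M phosphate buffer, pH 7.4, was adjusted to A729 0.8 ± 0.05, and 100 μl was mixed with 200 μl sample; absorbance was read at 729 nm after 10 min, in triplicate. Inhibition was taken relative to a phosphate-buffer control, and IC50 was obtained graphically from dose-inhibition curves.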

COX-2 = target: T1, COX-2 (Homo sapiens, UniProt P35354); assay: Anti-COX-2 assay (COX-2 Inhibitor Screening Kit); type: biochemical
T1 construct: purchased Beyotime S0168
T1 sequence (P35354 18-604): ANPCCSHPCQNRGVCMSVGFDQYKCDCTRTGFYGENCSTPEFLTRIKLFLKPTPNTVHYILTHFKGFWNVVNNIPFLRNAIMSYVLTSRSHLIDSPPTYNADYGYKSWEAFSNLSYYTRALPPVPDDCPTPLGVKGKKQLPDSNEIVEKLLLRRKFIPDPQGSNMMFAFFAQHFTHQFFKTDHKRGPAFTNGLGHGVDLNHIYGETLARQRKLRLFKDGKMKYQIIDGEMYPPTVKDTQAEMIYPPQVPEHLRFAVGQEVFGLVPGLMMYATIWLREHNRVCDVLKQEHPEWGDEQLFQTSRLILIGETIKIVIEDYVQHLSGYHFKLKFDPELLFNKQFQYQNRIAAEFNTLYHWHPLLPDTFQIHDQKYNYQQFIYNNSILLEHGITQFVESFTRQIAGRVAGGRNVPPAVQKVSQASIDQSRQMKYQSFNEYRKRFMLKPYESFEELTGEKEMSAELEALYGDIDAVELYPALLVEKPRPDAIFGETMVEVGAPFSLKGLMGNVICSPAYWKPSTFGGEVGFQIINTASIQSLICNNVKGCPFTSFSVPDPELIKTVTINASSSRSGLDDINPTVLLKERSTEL

[2] = Online UPLC-PDA-MS-ABTS·+ scavenging (postcolumn derivatisation); conditions: within DOF extract
Protocol: Online identification of antioxidant components of DOF extract was performed using a UPLC system (Milford, MA, USA) consisting of a Waters photodiode array detector and a Waters postcolumn derivatisation system supplying fresh ABTS solution (UPLC-PDA-QDa-ABTS). […] The detection wavelengths were set at 280 and 734 nm, and the injection volume of the sample was 10 μl.
To detect radical scavengers, the UPLC system was coupled with a Waters pump, which supplied freshly prepared ABTS·+ solution into a reaction coil (15 m, 0.25 mm ID) with a flow rate of 0.2 ml/min at 37°C. Negative peaks were recorded based on a decrease of absorbance at 729 nm after the reaction of individual compounds with the ABTS·+ radical. For preliminary identification of compounds, a Waters Acquity QDa mass detector in negative ionisation mode was connected in series to PDA with the following parameters: electrospray ion source; cone voltage, 15 V; atomiser, N2; and scanning range, 100–800 m/z.

[3] = Fluorescent AGEs formation in a BSA-fructose/glucose system; type: biochemical; conditions: for IC50: mean ± SD, n = 3, read-out: BSA-glycation IC50; for inhibition of fluorescent AGEs formation (BSA-抗糖化), single replicate: individual replicate; for inhibition of fluorescent AGEs formation (BSA-抗糖化), 平均 (mean): mean of 3 replicates
How it was run: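 BSA glycated in vitro with D-glucose and D-fructose while test samples, dissolved in DMSO:water (1:4), were present. Percent inhibition of fluorescent AGE formation calculated from fluorescence corrected for sample-only and BSA-free blanks; triplicate.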

[4] = FRAP total antioxidant capacity; type: biochemical; conditions: lower part of sheet (compound series);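 also: colourimetric FRAP kit assay read as absorbance in 96-well plates, values as mM FeSO4 via standard curve, EC1 being sample concentration matching 1.0 mmol/L FeSO4, Trolox positive control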
DPPH· scavenging = type: biochemical; conditions: mean ± SD, n = 3

In the case of `O=c1c(O[C@@H]2O[C@H](CO)[C@@H](O)[C@H](O)[C@H]2O)c(-c2ccc(O)c(O)c2)oc2cc(O)cc(O)c12` [compound 25, Isoquercitrin], the ABTS scavenging rate ([1]; concentration 7.8125 (unit not given)) is reported as 37.41% and 37.49% and 37.14%, the ABTS scavenging rate ([1]; concentration 15.625 (unit not given)) is reported as 63.25% and 62.99% and 62.91% and the ABTS scavenging rate ([1]; concentration 31.25 (unit not given)) is reported as 95.51% and 95.22% and 96.00%. For the same molecule, the ABTS scavenging rate ([1]; concentration 62.5 (unit not given)) was 99.23% and 99.50% and 99.53%, the ABTS scavenging rate ([1]; concentration 125 (unit not given)) was 99.63% and 99.58% and 99.53% and the ABTS scavenging rate ([1]; concentration 250 (unit not given)) was 99.04% and 98.96% and 98.89%. For the same molecule, the ABTS scavenging rate ([1]; concentration 500 (unit not given)) was 99.05% (2×) and 99.02%, the IC50 [1] was 10.67 ± 0.03 µM and the “COX-2 inhibition (in words)” value (COX-2) was “great COX-2 inhibition”. For the same molecule, the COX-2 inhibition (COX-2; 3.125 μM, single replicates, listed as T15, 3.125 µM) was -5.79% and 0.13% and 6.24%, the COX-2 inhibition (COX-2; 6.25 μM, single replicates, listed as T15, 6.25 µM) was 11.89% and 39.51% and 35.72% and the inhibition at 12.5 µM (COX-2; 12.5 μM, single replicates) was 41.8%. For the same molecule, the COX-2 inhibition (COX-2; 12.5 μM, single replicates, listed as T15, 12.5 µM) was 53.29% and 49.38%, the inhibition at 25 µM (COX-2; 25 μM, single replicates) was 67.1% and the COX-2 inhibition (COX-2; 25 μM, single replicates, listed as T15, 25 µM) was 72.74% and 74.72%. The inhibition at 50 µM (COX-2; 50 μM, single replicates) was 78.9%, the COX-2 inhibition (COX-2; 50 μM, single replicates, listed as T15, 50 µM) was 78.06% and 79.70% and the inhibition at 100 µM (COX-2; 100 μM, single replicates) was 77.2%. The COX-2 inhibition (COX-2; 100 μM, single replicates, listed as T15, 100 µM) was 81.94% and 80.44%, the inhibition at 200 µM (COX-2; 200 μM, single replicates) was 79.2% and the COX-2 inhibition (COX-2; 200 μM, single replicates, listed as T15, 200 µM) was 82.29% and 79.96%. The “online ABTS radical scavenging (size of negative peaks at 734 nm)” value [2] was “strongest ABTS radical scavengers”, the IC50 [3] was 213 ± 10.4 µM and the “FRAP EC1” value [4] was 520.2 ± 17.9 µM.

For `O=C(O)CC(=O)OCC1OC(Oc2c(-c3ccc(O)c(O)c3)oc3cc(O)cc(O)c3c2=O)C(O)C(O)C1O` (stereo not drawn) [compound 27, Quercetin 3-O-(6″-malonyl-glucoside)], the IC50 [1] was 28.4 ± 0.47 µM, the “COX-2 inhibition (in words)” value (COX-2) was “great COX-2 inhibition” and the inhibition at 3.125 µM (COX-2; 3.125 μM, single replicates) was 24.6%. For the same molecule, the COX-2 inhibition (COX-2; 3.125 μM, single replicates, listed as T11, 3.125 µM) was 20.59% and 27.90%, the COX-2 inhibition (COX-2; 6.25 μM, single replicates, listed as T11, 6.25 µM) was 14.74% and 29.06% and 32.72% and the inhibition at 12.5 µM (COX-2; 12.5 μM, single replicates) was 58.4%. For the same molecule, the COX-2 inhibition (COX-2; 12.5 μM, single replicates, listed as T11, 12.5 µM) was 54.43% and 66.15%, the inhibition at 25 µM (COX-2; 25 μM, single replicates) was 71.8% and the COX-2 inhibition (COX-2; 25 μM, single replicates, listed as T11, 25 µM) was 72.43% and 76.32%. For the same molecule, the inhibition at 50 µM (COX-2; 50 μM, single replicates) was 73.1%, the COX-2 inhibition (COX-2; 50 μM, single replicates, listed as T11, 50 µM) was 74.00% and 78.80% and the inhibition at 100 µM (COX-2; 100 μM, single replicates) was 77.6%. For the same molecule, the COX-2 inhibition (COX-2; 100 μM, single replicates, listed as T11, 100 µM) was 75.00% and 79.64%, the inhibition at 200 µM (COX-2; 200 μM, single replicates) was 75.5% and the COX-2 inhibition (COX-2; 200 μM, single replicates, listed as T11, 200 µM) was 78.98% and 87.56%. The IC50 (COX-2; mean ± SD, n = 3, nd, not detected, read-out: COX-2 IC50) was 12.5 ± 2.9 µM, the IC50 (COX-2; supplement sheet COX, read-out: COX-2 IC50, single replicate) was 13.5 µM and 9.23 µM and 14.8 µM and the IC50 (DPPH· scavenging) was 24.7 ± 0.96 µM. For the same molecule, the “online ABTS radical scavenging (size of negative peaks at 734 nm)” value [2] was “strongest ABTS radical scavengers”, the “inhibition of fluorescent AGEs formation (BSA-抗糖化), single replicate” value (“inhibition … single replicate” below) ([3]; 15.625 µM, listed as T11, 15.625 µM) was 10.51% and 15.35% and 23.11% and the “inhibition of fluorescent AGEs formation (BSA-抗糖化), 平均 (mean)” value (shortened to “inhibition … (mean)”) ([3]; 15.625 µM) was 16.32%. For the same molecule, the “inhibition … single replicate” value ([3]; 31.25 µM, listed as T11, 31.25 µM) was 5.08% and 5.86% and 10.67%, the “inhibition … (mean)” value ([3]; 31.25 µM) was 7.20% and the “inhibition … single replicate” value ([3]; 62.5 µM, listed as T11, 62.5 µM) was 17.13% and 15.89% and 16.80%. For the same molecule, the “inhibition … (mean)” value ([3]; 62.5 µM) was 16.61%, the “inhibition … single replicate” value ([3]; 125 µM, listed as T11, 125 µM) was 26.98% and 29.78% and 30.07% and the “inhibition … (mean)” value ([3]; 125 µM) was 28.94%. For the same molecule, the “inhibition … single replicate” value ([3]; 250 µM, listed as T11, 250 µM) was 45.50% and 47.09% and 47.76%, the “inhibition … (mean)” value ([3]; 250 µM) was 46.78% and the “inhibition … single replicate” value ([3]; 500 µM, listed as T11, 500 µM) was 61.62% and 62.32% and 63.30%. The “inhibition … (mean)” value ([3]; 500 µM) was 62.41%, the “inhibition … single replicate” value ([3]; 1000 µM, listed as T11, 1000 µM) was 77.56% and 77.94% and 77.85% and the “inhibition … (mean)” value ([3]; 1000 µM) was 77.78%. The “inhibition … single replicate” value ([3]; 2000 µM, listed as T11, 2000 µM) was 88.53% and 88.63% and 88.83%, the “inhibition … (mean)” value ([3]; 2000 µM) was 88.66% and the “inhibition … single replicate” value ([3]; 4000 µM (series head 'T9 4000µM', 2-fold dilutions), listed as T11) was 94.35% and 94.74% and 94.79%. The “inhibition … (mean)” value ([3]; 4000 µM) was 94.62%, the IC50 [3] was 288 ± 17.9 µM and the “FRAP EC1” value [4] was 826.7 ± 98.5 µM.
